Patent publication US20080063643A1, “Peptide Derived From Hepatitis C Virus” (priority 2003, published 2008)

System: peptide-specific IgG in the serum
Experiment: ELISA of peptide-specific IgG in sera of HCV patients and healthy donors (Example 1)
Assay type: binding, human
Conditions: ELISA, cut-off value 1.83; for Healthy donors (n = 10) Positive n: number of 10 healthy donors with serum IgG reactive to the peptide; for HCV patients (n = 12) Positive n: number of 12 HCV patients with serum IgG reactive to the peptide; for Healthy donors (n = 10) Positive %: share of 10 healthy donors with serum IgG reactive to the peptide; for HCV patients (n = 12) Positive %: share of 12 HCV patients with serum IgG reactive to the peptide
Protocol: Synthetic peptides having an HLA-A2-binding motif or an HLA-A24-binding motif from a conserved region of HCV genotype 1b protein were used in this study (Table 1). A peptide derived from HIV having an HLA-A2-binding motif was used as a negative control. All of these peptides were purchased from a commercially supplier. The purity was analyzed by reverse-phase high-pressure liquid chromatography and found to be 90% or higher.
The level of the peptide-specific IgG in the serum was measured by ELISA. First, each peptide was dissolved in dimethyl sulfoxide (DMSO) and stored at −80° C. The peptide was diluted with 0.1 M sodium carbonate/sodium bicarbonate solution containing disuccinimidyl suberate (DSS) as a crosslinker. An ELISA plate was coated with 20 μg/well of peptide at 4° C. overnight. The wells were washed 3 times with 0.05% Tween 20/PBS (PBST), and the plate was blocked with Block Ace (registered trademark) and left overnight at 4° C. Plasma or serum samples were diluted in 1:100, 1:200 and 1:400 with 0.05% Tween 20/Block Ace, and 100 μl of each of the samples was added to each well. After the samples were incubated at 37° C. for 2 hours, the plate was washed 9 times with PBST, 100 μl of a 1:1000 diluted rabbit anti-human IgG (γ-chain specific) was added to each well, and incubated at 37° C. for 2 hours. The plate was washed 9 times with PBST, and 100 μl of 1:100 diluted mouse anti-rabbit IgG conjugated to a horseradish peroxidase-dextran polymer was added to each well, and then the plate was incubated at room temperature for 40 minutes. After the plate was washed, 100 μl of a tetramethylbenzidine substrate solution was added to each well. The reaction was stopped by the addition of 2.0 M phosphoric acid. The cutoff value was calculated as the mean±3 SD of the optical density values of the control obtained from the healthy donors.
The level of IgG that reacts with each of the 62 types of peptides was measured in the sera from 12 patients infected with HCV and 10 healthy donors (HDs) (Table 1).

| Substance | Healthy donors (n = 10) Positive n | HCV patients (n = 12) Positive n | Healthy donors (n = 10) Positive % [%] | HCV patients (n = 12) Positive % [%] |
| --- | --- | --- | --- | --- |
| 3 (RYAPACKPL; Hepatitis C Virus) [Peptide 3] | 1 | 12 | 10 | 100 |
| 10 (AYALYGVWPL; Hepatitis C Virus) [Peptide 10] | 0 | 1 | 0 | 8 |
| 26 (AYALYGVWPL; Hepatitis C Virus) [Peptide 26] | 0 | 2 | 0 | 17 |
| 33 (NFISGIQYL; Hepatitis C Virus) [Peptide 33] | 0 | 0 | 0 | 0 |
| 43 (ILHTPGCV; Hepatitis C Virus) [Peptide 43] | 0 | 3 | 0 | 25 |
| 37 (DFKTWLQSKL; Hepatitis C Virus) [Peptide 37] | 0 | 1 | 0 | 8 |
| 17 (QFKQKAIGL; Hepatitis C Virus) [Peptide 17] | 0 | 3 | 0 | 25 |
| 13 (VYEAADMIM; Hepatitis C Virus) [Peptide 13] | 0 | 6 | 0 | 50 |
| 20 (TYVYDHLTPL; Hepatitis C Virus) [Peptide 20] | 0 | 0 | 0 | 0 |
| 42 (HYRDVLKEM; Hepatitis C Virus) [Peptide 42] | 0 | 1 | 0 | 8 |
| 47 (LLCPAGHAV; Hepatitis C Virus) [Peptide 47] | 2 | 1 | 20 | 8 |
| 28 (YYRGLDVSVI; Hepatitis C Virus) [Peptide 28] | 0 | 2 | 0 | 17 |
| 12 (HYAPRPCGI; Hepatitis C Virus) [Peptide 12] | 0 | 9 | 0 | 75 |
| 32 (IFLLALLSCL; Hepatitis C Virus) [Peptide 32] | 0 | 7 | 0 | 58 |
| 25 (VYHGAGSKTL; Hepatitis C Virus) [Peptide 25] | 0 | 6 | 0 | 50 |
| 15 (LFLARLIWWL; Hepatitis C Virus) [Peptide 15] | 0 | 0 | 0 | 0 |
| 52 (ILAGYGAGV; Hepatitis C Virus) [Peptide 52] | 1 | 0 | 10 | 0 |
| 55 (GLQDCTMLV; Hepatitis C Virus) [Peptide 55] | 1 | 2 | 10 | 17 |
| 30 (VFVGLILLTL; Hepatitis C Virus) [Peptide 30] | 0 | 4 | 0 | 33 |
| 36 (GYGAGVAGAL; Hepatitis C Virus) [Peptide 36] | 0 | 1 | 0 | 8 |

| Substance | Healthy donors (n = 10) Positive n | HCV patients (n = 12) Positive n | Healthy donors (n = 10) Positive % [%] | HCV patients (n = 12) Positive % [%] |
| --- | --- | --- | --- | --- |
| 6 (HYPCTVNFTI; Hepatitis C Virus) [Peptide 6] | 0 | 0 | 0 | 0 |
| 38 (SFSIFLLALL; Hepatitis C Virus) [Peptide 38] | 0 | 7 | 0 | 58 |
| 62 (WFMWCLLLL; Hepatitis C Virus) [Peptide 62] | 0 | 7 | 0 | 58 |
| 21 (HYVQMALMKL; Hepatitis C Virus) [Peptide 21] | 0 | 5 | 0 | 42 |
| 9 (EYVLLLFLL; Hepatitis C Virus) [Peptide 9] | 0 | 0 | 0 | 0 |
| 11 (AYMSKAHGI; Hepatitis C Virus) [Peptide 11] | 0 | 6 | 0 | 50 |
| 66 (QFKQKALGLL; Hepatitis C Virus) [Peptide 66] | 0 | 3 | 0 | 25 |
| 8 (SFAIKWEYVL; Hepatitis C Virus) [Peptide 8] | 0 | 0 | 0 | 0 |
| 45 (SLLAPGAKQNV; Hepatitis C Virus) [Peptide 45] | 3 | 0 | 30 | 0 |
| 5 (HYAPRPCGI; Hepatitis C Virus) [Peptide 5] | 0 | 0 | 0 | 0 |
| 56 (ALAHGVRAL; Hepatitis C Virus) [Peptide 56] | 1 | 0 | 10 | 0 |
| 22 (TYVYDHLTPL; Hepatitis C Virus) [Peptide 22] | 0 | 7 | 0 | 58 |
| 19 (HYVQMALMKL; Hepatitis C Virus) [Peptide 19] | 0 | 1 | 0 | 8 |
| 57 (NLPGCSFSI; Hepatitis C Virus) [Peptide 57] | 1 | 0 | 10 | 0 |
| 40 (YLLPRRGPRL; Hepatitis C Virus) [Peptide 40] | 0 | 12 | 0 | 100 |
| 44 (WFMWCLLLL; Hepatitis C Virus) [Peptide 44] | 0 | 0 | 0 | 0 |
| 61 (HYRDVLKEM; Hepatitis C Virus) [Peptide 61] | 1 | 3 | 10 | 25 |
| 41 (SYTWTGALI; Hepatitis C Virus) [Peptide 41] | 0 | 0 | 0 | 0 |
| 27 (HYPCTVNFTI; Hepatitis C Virus) [Peptide 27] | 0 | 4 | 0 | 33 |
